Our source for the inhibition and CLint scaled values is ChEMBL document CHEMBL4665643 (Bioorg Med Chem Lett, 2019).

The inhibition is the drop in the measured response relative to a control, in per cent.

Data set [1] addresses Myosin light chain kinase, smooth muscle (Homo sapiens) (UniProt Q15746). As to the kind of experiment: Inhibition of tracer 236 binding to recombinant human GST-tagged MYLK (1428 to 1771 residues) expressed in baculovirus expression system at 0.1 uM incubated for 60 mins by Lanthascreen assay relative to control. (TR-FRET usually uses a lanthanide donor and a delayed reading to cut background.)

Data set [2] concerns the target Receptor tyrosine-protein kinase erbB-2 (Homo sapiens) (UniProt P04626). As to the kind of experiment: Inhibition of recombinant human His-tagged ERBB2 (676 to 1255 residues) expressed in baculovirus expression system using Tyr 06 as substrate at 0.1 uM incubated for 60 mins by Z'-Lyte assay relative to control.
Data set [3] deals with Death-associated protein kinase 1 (Homo sapiens) (UniProt P53355). Briefly: Inhibition of recombinant human N-terminal GST-tagged DAPK1 (1 to 363 residues) expressed in baculovirus expression system using ZIPtide as substrate at 0.1 uM incubated for 60 mins by Adapta assay relative to control.
Data set [4] in a line: Metabolic stability in human liver microsomes assessed as intrinsic clearance at 1 uM measured upto 60 mins by LC-MS/MS analysis. It counts as ADME, Microsome. As to conditions: read-out: CLH. A general note: Liver microsomes are vesicles of endoplasmic reticulum, rich in cytochrome P450 enzymes.
Data set [5] addresses Casein kinase I isoform alpha (Homo sapiens) (UniProt P48729). Briefly: Inhibition of recombinant human GST-tagged full length CK1alpha1 expressed in baculovirus expression system using Ser/Thr 11 as substrate at 0.1 uM incubated for 60 mins by Z'-Lyte assay relative to control.
For data set [6], the target named is Fibroblast growth factor receptor 1 (Homo sapiens) (UniProt P11362). As to the kind of experiment: Inhibition of recombinant human His-tagged FGFR1 (308 to 731 residues) expressed in baculovirus expression system using Tyr 01 as substrate at 0.1 uM incubated for 60 mins by Z'-Lyte assay relative to control.
For data set [7], the target named is T1, Mitogen-activated protein kinase kinase kinase 5 (Homo sapiens) (UniProt Q99683).
T1 sequence (whole entry): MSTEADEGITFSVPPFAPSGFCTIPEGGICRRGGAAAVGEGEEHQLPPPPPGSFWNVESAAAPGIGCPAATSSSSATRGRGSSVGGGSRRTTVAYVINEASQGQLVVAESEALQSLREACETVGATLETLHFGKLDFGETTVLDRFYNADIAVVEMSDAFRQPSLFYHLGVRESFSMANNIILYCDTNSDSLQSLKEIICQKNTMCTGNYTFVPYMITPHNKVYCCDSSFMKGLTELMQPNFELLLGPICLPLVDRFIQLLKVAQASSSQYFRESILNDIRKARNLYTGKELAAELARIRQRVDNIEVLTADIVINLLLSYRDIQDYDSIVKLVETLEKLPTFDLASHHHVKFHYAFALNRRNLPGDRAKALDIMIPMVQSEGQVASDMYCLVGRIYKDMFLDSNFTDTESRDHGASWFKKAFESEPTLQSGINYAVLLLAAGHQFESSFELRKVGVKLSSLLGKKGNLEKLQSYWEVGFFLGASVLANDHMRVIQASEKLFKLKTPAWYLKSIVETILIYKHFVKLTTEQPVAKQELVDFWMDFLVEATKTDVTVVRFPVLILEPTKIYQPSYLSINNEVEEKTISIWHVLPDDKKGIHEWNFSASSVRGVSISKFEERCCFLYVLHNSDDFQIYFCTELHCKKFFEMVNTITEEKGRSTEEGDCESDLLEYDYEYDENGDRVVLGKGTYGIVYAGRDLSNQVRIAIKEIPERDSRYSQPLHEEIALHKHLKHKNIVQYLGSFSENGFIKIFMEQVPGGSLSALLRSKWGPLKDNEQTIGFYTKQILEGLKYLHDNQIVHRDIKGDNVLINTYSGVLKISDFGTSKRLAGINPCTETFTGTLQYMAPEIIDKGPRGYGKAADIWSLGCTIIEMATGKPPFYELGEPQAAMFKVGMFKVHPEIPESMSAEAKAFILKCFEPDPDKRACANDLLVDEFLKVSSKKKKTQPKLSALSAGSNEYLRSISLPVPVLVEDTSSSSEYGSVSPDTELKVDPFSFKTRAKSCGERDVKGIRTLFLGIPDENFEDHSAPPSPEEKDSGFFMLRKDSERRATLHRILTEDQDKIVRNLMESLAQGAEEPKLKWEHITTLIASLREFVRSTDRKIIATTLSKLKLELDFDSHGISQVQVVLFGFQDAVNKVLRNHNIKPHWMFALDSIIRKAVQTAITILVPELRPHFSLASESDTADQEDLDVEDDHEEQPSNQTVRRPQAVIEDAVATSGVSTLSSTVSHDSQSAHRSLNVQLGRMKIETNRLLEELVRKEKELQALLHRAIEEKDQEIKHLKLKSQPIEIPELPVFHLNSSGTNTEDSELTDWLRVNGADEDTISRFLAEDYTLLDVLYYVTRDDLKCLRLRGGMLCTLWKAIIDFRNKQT
Briefly: Inhibition of tracer 236 binding to recombinant human GST-tagged full length ASK1 expressed in baculovirus expression system at 0.1 uM incubated for 60 mins by Lanthascreen assay relative to control.

Data set [8] has as its target Fibroblast growth factor receptor 4 (Homo sapiens) (UniProt P22455). As to the kind of experiment: Inhibition of recombinant human His-tagged FGFR4 ([…]) expressed in baculovirus expression system using Tyr 04 as substrate at 0.1 uM incubated for 60 mins by Z'-Lyte assay relative to control.
The target of data set [9] is Tyrosine-protein kinase JAK1 (Homo sapiens, UniProt P23458). As to conditions: dose 0.1 µM, time 60.0 min.
The target of data set [10] is T2, Aurora kinase A (Homo sapiens) (UniProt O14965).
T2 sequence (whole entry): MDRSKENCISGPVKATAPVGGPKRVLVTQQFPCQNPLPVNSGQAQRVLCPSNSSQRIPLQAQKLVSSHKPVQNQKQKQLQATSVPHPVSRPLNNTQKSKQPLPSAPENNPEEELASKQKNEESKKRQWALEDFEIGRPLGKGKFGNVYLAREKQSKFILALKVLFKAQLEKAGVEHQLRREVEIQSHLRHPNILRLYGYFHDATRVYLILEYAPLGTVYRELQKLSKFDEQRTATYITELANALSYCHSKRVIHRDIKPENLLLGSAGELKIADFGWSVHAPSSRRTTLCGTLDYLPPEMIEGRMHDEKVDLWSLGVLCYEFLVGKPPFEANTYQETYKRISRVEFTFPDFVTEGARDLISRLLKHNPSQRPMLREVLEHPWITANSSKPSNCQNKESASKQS
As to the kind of experiment: Inhibition of recombinant human His-tagged full length Aurora A expressed in baculovirus expression system using Ser/Thr 01 as substrate at 0.1 uM incubated for 60 mins by Z'-Lyte assay relative to control.

Data set [11] has as its target MAP kinase-activated protein kinase 2 (Homo sapiens) (UniProt P49137). As to the kind of experiment: Inhibition of recombinant human His-tagged full length MAPKAPK2 expressed in Escherichia coli expression system using Ser/Thr 04 as substrate at 0.1 uM incubated for 60 mins by Z'-lyte assay relative to control.

MAP kinase-activated protein kinase 2 (Homo sapiens), sequence (P49137 whole entry, looked up): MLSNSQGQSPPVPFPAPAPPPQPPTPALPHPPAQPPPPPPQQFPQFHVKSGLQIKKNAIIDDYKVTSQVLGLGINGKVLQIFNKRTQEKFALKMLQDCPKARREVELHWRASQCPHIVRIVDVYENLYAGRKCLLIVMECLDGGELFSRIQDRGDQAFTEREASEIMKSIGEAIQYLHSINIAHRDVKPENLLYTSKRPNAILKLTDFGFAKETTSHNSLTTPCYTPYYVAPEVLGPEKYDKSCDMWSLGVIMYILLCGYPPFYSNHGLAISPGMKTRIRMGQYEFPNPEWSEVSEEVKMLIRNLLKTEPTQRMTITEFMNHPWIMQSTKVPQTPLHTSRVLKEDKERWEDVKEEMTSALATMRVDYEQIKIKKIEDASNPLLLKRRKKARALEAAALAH
Receptor tyrosine-protein kinase erbB-2 (Homo sapiens), sequence (P04626 whole entry, the tested form may be a part): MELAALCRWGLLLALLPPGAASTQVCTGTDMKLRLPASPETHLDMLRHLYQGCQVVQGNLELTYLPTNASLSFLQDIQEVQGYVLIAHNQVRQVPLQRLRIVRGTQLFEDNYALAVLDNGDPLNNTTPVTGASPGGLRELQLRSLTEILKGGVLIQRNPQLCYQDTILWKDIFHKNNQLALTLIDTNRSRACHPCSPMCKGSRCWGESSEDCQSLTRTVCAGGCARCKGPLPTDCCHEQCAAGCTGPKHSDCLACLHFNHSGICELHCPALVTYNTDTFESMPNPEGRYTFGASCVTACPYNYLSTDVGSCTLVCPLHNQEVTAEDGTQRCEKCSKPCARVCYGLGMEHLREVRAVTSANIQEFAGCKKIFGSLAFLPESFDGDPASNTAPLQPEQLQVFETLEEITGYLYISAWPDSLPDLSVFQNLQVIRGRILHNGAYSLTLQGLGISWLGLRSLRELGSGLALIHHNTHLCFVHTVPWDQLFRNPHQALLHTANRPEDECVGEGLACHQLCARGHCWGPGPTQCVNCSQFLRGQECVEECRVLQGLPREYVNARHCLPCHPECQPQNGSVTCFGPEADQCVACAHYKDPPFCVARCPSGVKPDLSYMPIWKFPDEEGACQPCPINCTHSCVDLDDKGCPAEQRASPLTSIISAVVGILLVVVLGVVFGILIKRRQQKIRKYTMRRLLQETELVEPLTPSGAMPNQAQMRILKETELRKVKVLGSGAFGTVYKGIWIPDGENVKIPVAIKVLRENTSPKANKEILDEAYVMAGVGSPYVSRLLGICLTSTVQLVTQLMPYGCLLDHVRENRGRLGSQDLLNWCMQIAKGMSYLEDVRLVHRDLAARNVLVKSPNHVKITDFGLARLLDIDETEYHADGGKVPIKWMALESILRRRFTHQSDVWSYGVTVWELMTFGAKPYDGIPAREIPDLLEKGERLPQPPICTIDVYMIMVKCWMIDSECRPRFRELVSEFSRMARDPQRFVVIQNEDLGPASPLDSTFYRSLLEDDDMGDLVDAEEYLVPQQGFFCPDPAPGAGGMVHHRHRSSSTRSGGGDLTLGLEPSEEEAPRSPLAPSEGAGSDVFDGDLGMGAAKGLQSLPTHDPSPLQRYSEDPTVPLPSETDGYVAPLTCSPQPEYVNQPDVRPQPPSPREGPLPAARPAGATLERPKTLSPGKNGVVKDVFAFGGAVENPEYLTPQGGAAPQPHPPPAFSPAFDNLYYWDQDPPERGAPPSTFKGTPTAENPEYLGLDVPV
Fibroblast growth factor receptor 1 (Homo sapiens), sequence (P11362 22-822 limits assumed): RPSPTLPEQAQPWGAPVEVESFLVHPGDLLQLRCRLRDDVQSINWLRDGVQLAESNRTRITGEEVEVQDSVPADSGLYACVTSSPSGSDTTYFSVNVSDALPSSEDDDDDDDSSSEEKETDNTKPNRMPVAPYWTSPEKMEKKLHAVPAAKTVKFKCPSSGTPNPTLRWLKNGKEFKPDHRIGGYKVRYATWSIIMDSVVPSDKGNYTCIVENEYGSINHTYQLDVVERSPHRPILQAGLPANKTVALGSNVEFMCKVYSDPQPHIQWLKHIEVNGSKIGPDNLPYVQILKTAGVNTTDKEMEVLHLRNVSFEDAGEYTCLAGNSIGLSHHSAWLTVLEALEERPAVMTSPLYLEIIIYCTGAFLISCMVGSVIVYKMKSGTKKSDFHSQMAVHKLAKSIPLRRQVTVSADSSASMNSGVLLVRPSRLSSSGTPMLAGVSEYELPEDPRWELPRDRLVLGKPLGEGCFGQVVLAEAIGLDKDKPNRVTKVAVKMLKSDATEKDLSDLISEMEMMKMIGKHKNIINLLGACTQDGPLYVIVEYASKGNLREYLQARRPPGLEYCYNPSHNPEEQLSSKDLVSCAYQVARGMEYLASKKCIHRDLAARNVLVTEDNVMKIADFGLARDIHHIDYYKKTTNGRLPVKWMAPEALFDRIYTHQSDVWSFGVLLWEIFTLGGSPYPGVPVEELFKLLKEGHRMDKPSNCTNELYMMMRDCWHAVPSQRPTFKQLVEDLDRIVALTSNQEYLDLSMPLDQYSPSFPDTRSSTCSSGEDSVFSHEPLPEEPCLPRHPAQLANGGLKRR
Myosin light chain kinase, smooth muscle (Homo sapiens), sequence (Q15746 whole entry, the tested form may be a part): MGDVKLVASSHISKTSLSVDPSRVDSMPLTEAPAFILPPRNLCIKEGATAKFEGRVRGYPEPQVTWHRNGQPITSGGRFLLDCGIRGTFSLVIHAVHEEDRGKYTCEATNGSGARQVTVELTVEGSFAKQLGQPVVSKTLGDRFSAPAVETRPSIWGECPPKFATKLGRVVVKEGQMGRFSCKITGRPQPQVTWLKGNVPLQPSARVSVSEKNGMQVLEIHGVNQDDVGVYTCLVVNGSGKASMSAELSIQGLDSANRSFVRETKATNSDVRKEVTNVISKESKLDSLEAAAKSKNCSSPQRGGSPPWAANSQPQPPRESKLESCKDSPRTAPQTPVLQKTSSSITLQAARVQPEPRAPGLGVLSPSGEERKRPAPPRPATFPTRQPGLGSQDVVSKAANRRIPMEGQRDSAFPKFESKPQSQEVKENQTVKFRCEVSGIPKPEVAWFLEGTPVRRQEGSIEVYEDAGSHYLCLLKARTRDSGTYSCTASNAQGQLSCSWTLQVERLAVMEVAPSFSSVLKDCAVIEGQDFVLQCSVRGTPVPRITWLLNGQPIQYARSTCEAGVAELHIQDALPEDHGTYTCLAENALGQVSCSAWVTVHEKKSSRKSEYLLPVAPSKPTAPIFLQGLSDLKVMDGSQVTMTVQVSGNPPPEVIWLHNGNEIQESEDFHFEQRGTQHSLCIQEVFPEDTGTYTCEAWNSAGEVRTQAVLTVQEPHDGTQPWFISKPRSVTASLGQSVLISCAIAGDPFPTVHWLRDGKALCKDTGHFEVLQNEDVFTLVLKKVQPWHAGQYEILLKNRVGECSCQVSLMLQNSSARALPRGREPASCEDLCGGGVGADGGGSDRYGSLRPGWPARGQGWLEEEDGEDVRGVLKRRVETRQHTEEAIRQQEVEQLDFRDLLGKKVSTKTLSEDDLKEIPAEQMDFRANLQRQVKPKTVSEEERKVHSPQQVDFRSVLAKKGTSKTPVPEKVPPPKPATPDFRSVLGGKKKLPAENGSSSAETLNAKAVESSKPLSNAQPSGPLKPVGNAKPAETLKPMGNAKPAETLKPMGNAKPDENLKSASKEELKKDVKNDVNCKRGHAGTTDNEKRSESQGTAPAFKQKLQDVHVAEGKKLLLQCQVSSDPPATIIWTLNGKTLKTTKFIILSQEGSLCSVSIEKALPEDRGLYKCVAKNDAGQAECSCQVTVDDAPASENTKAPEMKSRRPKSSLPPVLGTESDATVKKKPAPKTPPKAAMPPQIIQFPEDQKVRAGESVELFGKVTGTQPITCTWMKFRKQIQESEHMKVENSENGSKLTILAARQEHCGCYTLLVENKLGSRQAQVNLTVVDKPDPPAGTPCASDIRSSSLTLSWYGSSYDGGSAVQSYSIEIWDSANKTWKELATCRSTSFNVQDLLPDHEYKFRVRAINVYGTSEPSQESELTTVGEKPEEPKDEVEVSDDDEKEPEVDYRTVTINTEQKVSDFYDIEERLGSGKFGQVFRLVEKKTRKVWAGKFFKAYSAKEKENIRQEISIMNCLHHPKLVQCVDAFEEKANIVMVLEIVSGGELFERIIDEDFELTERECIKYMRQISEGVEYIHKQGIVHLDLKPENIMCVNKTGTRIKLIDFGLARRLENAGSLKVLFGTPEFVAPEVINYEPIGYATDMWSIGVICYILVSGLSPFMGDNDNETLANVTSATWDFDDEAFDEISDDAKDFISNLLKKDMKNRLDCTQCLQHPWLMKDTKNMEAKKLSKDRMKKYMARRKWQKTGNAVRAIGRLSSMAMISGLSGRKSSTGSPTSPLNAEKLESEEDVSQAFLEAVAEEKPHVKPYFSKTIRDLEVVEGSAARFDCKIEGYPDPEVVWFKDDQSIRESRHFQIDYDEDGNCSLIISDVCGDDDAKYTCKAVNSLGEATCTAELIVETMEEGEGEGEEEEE
Casein kinase I isoform alpha (Homo sapiens), sequence (P48729 2-337 limits assumed): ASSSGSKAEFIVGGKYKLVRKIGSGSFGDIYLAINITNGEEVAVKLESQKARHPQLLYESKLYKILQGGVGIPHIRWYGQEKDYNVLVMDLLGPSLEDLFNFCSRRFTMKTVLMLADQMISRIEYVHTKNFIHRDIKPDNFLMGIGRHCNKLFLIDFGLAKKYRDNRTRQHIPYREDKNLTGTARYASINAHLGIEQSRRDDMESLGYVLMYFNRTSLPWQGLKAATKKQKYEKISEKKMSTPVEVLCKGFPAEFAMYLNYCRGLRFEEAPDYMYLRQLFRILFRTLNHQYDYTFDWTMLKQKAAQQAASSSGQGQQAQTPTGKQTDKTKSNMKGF

Take `O=C(Nc1c[nH]nc1-c1cc(Cl)ccc1OC(F)F)c1cnn2cccnc12`: the inhibition in data set [1] is 2%; in data set [2], 1%; in data set [3] it was 19%; in [5], 10%; in data set [6] it was -1%; in [7], 4%. Further, the inhibition in data set [8] was -1%; in data set [9], 100%; in [10], 20%; in data set [11], 0%. For the same compound, the CLint scaled at 1 µM in [4] was 14 mL/min/kg.

Consider `Cn1cc(NC(=O)c2cnn3cccnc23)c(-c2cc(Cl)ccc2OC(F)F)n1`, for which the inhibition in [1] is 11%; in [2] it was -1%; in data set [3] it was 11%; in data set [5], 6%; in data set [6] it was 6%; in data set [7] it was 2%. Also, the inhibition in data set [8] is 5%; in data set [9], 96%; in [10] it was 13%; in data set [11], 10%. The CLint scaled at 1 µM in data set [4] came to 15 mL/min/kg.

`O=C(Nc1c[nH]nc1-c1cc2ccccc2cc1OC(F)F)c1cnn2cccnc12`: the inhibition in [1] was 0%; in data set [2], -6%; in data set [3], 22%; in data set [5], -1%; in data set [6] it was 1%; in [7], -2%. The inhibition in data set [8] turned out to be 4%; in data set [9] it was 96%; in [10], 24%; in [11], 6%. In data set [4], the CLint scaled at 1 µM stood at 17 mL/min/kg.
